Source: paper PMC10191619, “Bilirubin gates the TRPM2 channel as a direct agonist to exacerbate ischemic brain damage” (Neuron, 2023)

Assays:
[1] = biological target: T1, hTRPM2 R302A/R358A (Homo sapiens, UniProt O94759, R302A/R358A); assay: Whole-cell patch-clamp, N-terminal ADPR-binding site mutant; type: cell-based; settings: bilirubin
T1 construct: expressed in transfected cells; host or cells: HEK293T cells, transient transfection (Lipofectamine 3000), GFP cDNA co-transfected as a separate marker
T1 sequence (O94759 whole entry R302A/R358A): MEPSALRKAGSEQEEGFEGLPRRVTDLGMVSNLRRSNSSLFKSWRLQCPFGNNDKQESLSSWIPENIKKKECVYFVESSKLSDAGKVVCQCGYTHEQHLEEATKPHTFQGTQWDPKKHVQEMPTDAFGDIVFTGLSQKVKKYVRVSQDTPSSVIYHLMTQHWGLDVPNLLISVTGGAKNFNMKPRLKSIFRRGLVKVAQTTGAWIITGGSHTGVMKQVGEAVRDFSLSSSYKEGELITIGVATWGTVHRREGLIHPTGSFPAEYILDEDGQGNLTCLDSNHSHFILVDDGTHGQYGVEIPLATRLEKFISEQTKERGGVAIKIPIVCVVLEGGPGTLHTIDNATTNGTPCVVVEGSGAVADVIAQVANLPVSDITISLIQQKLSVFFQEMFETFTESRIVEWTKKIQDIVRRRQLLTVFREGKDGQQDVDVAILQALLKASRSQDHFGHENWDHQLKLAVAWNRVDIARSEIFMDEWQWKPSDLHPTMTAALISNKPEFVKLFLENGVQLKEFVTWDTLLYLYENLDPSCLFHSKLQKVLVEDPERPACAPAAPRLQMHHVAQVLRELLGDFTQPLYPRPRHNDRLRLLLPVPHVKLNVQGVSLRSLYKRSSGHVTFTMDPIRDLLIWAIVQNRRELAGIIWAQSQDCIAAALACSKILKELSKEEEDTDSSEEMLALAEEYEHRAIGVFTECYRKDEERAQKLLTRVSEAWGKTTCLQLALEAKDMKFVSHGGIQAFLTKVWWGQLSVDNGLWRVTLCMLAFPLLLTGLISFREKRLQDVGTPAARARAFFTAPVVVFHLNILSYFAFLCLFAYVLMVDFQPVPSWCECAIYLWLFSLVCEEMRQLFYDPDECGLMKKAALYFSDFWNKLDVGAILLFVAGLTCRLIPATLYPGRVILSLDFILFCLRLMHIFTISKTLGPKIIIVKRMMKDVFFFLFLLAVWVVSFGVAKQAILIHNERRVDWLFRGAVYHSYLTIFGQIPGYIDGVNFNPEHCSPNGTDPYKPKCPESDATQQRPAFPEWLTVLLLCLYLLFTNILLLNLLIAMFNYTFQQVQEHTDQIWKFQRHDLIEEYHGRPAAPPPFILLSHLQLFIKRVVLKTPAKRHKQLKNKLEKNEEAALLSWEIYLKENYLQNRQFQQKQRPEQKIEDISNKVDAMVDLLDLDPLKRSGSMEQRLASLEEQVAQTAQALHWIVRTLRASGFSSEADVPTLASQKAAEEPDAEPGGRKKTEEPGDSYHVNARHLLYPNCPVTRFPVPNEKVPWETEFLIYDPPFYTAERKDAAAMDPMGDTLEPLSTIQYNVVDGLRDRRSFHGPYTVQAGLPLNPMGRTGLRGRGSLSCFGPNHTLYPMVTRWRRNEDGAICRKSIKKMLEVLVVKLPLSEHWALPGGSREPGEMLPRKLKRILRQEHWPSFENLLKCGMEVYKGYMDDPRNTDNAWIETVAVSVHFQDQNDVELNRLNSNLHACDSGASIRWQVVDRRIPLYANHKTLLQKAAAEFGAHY
Procedure: Human embryonic kidney 293 (HEK293) cells with tetracycline-inducible expression of human TRPM2 channel (hTRPM2) were cultured in a mixed medium containing DMEM/ F-12 (Gibco, USA) and 10% fetal bovine serum (Gibco, USA) as well as blasticidin (50 μg/ml, Invivogen, USA) and zeocin (0.4 mg/ml, Invivogen, USA). The expression of hTRPM2 was induced by substituting blasticin and zeocin for tetracycline (1 μg/ml, Sigma, USA) 24-48 hours before use. TRPM2 channel mutants were transiently expressed in HEK293T cells by transfection with using Lipofectamine 3000. Briefly, HEK293T cells were transiently transfected with cDNAs encoding the mutant hTRPM2 channel. The cDNA for GFP was co-transfected as a marker for identification of the transfected cells for electrophysiological experiments 16-24 hours after transfection. […]
Coronal cortical slices were transferred into the recording chamber and continuously perfused at room temperature with ACSF oxygenated with 95% O2 and 5% CO2. […] For whole-cell or single channel recordings from transfected HEK-293T cells, the coverslips were placed in a culture dish (35 × 35 mm, Sorfa) containing HEPES based extracellular solution (ECS) and recorded by patch-clamp technique. […] Each coverslip was recorded only once with different drug exposures. […]

[2] = test system: tMCAO Trpm2+/+ mice; assay: tMCAO ischemia model, infarct volume by TTC staining, Trpm2+/+ mice; type: in vivo, mouse; settings: for infarct volume: 24 h after tMCAO
[3] = biological target: T2, human TRPM2 (hTRPM2) channel (Homo sapiens, UniProt O94759); assay: Whole-cell patch-clamp of TRPM2 currents (voltage ramps) in HEK-hTRPM2 cells; type: cell-based
T2 construct: expressed in transfected cells; host or cells: HEK293 cells with tetracycline-inducible expression of hTRPM2 (HEK-hTRPM2)
T2 sequence (O94759 whole entry): as the sequence (O94759 whole entry R302A/R358A) above, with A302R, A358R counted along it
Procedure: Human embryonic kidney 293 (HEK293) cells with tetracycline-inducible expression of human TRPM2 channel (hTRPM2) were cultured in a mixed medium containing DMEM/ F-12 (Gibco, USA) and 10% fetal bovine serum (Gibco, USA) as well as blasticidin (50 μg/ml, Invivogen, USA) and zeocin (0.4 mg/ml, Invivogen, USA). The expression of hTRPM2 was induced by substituting blasticin and zeocin for tetracycline (1 μg/ml, Sigma, USA) 24-48 hours before use. TRPM2 channel mutants were transiently expressed in HEK293T cells by transfection with using Lipofectamine 3000. Briefly, HEK293T cells were transiently transfected with cDNAs encoding the mutant hTRPM2 channel. The cDNA for GFP was co-transfected as a marker for identification of the transfected cells for electrophysiological experiments 16-24 hours after transfection. All the cells were seeded on 96-well coverslips (3 x 3 mm, WHB) and cultured at 37 °C under a humidified atmosphere containing 5% CO2.
Coronal cortical slices were transferred into the recording chamber and continuously perfused at room temperature with ACSF oxygenated with 95% O2 and 5% CO2. Cortical pyramidal neurons were visualized by an upright microscope (Carl Zeiss) equipped with a CCD monochrome video camera (IR-1000, DAGE-MTI) and identified by their localization in Layer V. Electrophysiology data were sampled (50 kHz) and lowpass filtered (5kHz four-pole Bessel filter) by a MultiClamp 700B dual channel amplifier (Molecular Devices). The patch electrodes were pulled from borosilicate capillary glass (1.5 mm outer diameter; 0.86 mm inner diameter; World Precision Instruments, USA) with a horizontal multi-step micropipette puller (Model, P-1000, Sutter Instrument). […] After forming >1 GΩ resistance seal in cell-attached configuration, we broke the patch membrane and kept the neurons at -64 mV and then performed whole-cell current-clamp recordings. Cells requiring holding current > -150 pA at -60 mV were discarded. The resting membrane potential (Vrest) was tested in I = 0 configuration. Intrinsic excitability was tested by 500 ms long current steps between -200 and +400 pA with 50-pA increments in the presence of blockers for AMPA, NMDA, and GABA receptors (APV, 50 μM; NBQX, 10 μM; bicuculine 10 μM, strychnine 1 μM). Only one recording was conducted per brain slice. For whole-cell or single channel recordings from transfected HEK-293T cells, the coverslips were placed in a culture dish (35 × 35 mm, Sorfa) containing HEPES based extracellular solution (ECS) and recorded by patch-clamp technique. Cells were visualized by using the phase-contrast mode of an inverted microscope (TE-2000U; Nikon, Japan) and the patch pipette was positioned on the cells using a motorized micromanipulator (MP-225; Sutter) under the microscope. The transfected cells were voltage-clamped at 0 mV and subjected to voltage ramps from -100 mV to +100 mV (500 ms duration) every 5 s. The basal ramp current (i.e., the trace when the leak current is stable after membrane rupture) before channel activation were used for leak subtraction of all subsequent ramp currents. Each coverslip was recorded only once with different drug exposures. Single-channel recordings were carried out under outside-out configuration, using pipettes with resistance of 6-8 MΩ. The excised patches were voltage-clamped from -80 mV to +80 mV (in 20 mV increasement) to generate the current-voltage (I-V) relationship of single channel currents from which their main conductance was calculated from the slope by linear regression of the mean current amplitude at different potentials. Single-channel recordings of the cortical neurons were performed by adding 4-AP, TEA-Cl, CsCl2 and TTX to block sodium channel, potassium channel and calcium channel.
The cutting solution for brain slices contained the following (in mM): 87 NaCl, 75 sucrose, 2.5 KCl, 10 glucose, 1.25 NaH2PO4, 2 Na-pyruvate, 3 myo-inositol, 0.5 ascorbic acid, 26 NaHCO3,7 MgCl2, and 0.1 CaCl2 (pH 7.4; 290-320 mOsm).

[4] = test system: layer 5 cortical pyramidal neurons from adult Trpm2+/+ mice; assay: Whole-cell current-clamp, intrinsic excitability in brain slices, Trpm2+/+; type: cell-based, mouse
[5] = test system: cortical neurons in adult Trpm2+/+ brain slices; settings: bilirubin, 1 h of incubation, n = 6
[6] = Serum and CSF TB / UCB measurement after bilirubin injection and tMCAO; type: in vivo, mouse; settings: D1066A KI mice, 24 h after tMCAO, n = 9
Procedure: Trpm2^+/+, Trpm2^-/- and D1066A C57BL/6 mice were anesthetized by intraperitoneal injection of pentobarbital (55 mg/kg) 24 hours before tMCAO operation, and then fixed in the stereotactic setup (RWD Life Science). The skin above the skull from the base of the neck up to in between the eyes was cut open. A hole directly above the right ventricle was made with a grinding drill to allow insertion of the micro syringe into the lateral ventricle (coordinates: 1.1 mm laterally to the right and 0.5 mm posterior of the bregma, 2.5 mm deep). CSF was collected by using the micro injection pump (speed: 0.2 μl/min), after which the syringe was withdrawn, and the skin was sutured. The mice were removed from the stereotactic setup and 50 μl blood was taken through the orbital venous plexus. Mice were then placed on 37 °C heating blanket till they regained consciousness and returned to the cage. 1 or 24 hours after tMCAO, animals were anesthetized using a 2% isoflurane-oxygen mixture. CSF and blood were collected in the same way before sacrifice. All samples were centrifuged at 3000 r/min. Total bilirubin concentration of supernatants was measured with the Bilirubin Reagent Kit (Sigma). Samples were transferred to a 96-plates and mixed with reaction solution before measurements of their absorbance were made at 530 nm 10 minutes later. UCB concentration was measured with UnaG, a bilirubin-inducible fluorescent protein from Japanese eel muscle. For standard calibration curve of fluorescence intensity, a 100 μl reaction mixture containing 50 μl UnaG solution (1 μM) and 50 μl artificial bilirubin solution with concentration gradient (1.4278 μM, 0.7139 μM, 0.3573 μM, 0.1785 μM, 0.0893 μM and 0 μM) was prepared. After 10 minutes of reaction, the fluorescence intensity was detected by microplate reader (Synergy H1M, Bio Tek) with fluorescence filters for excitation and emission wavelengths of 485 and 528 nm, respectively. Serum and CSF samples were diluted 20-fold with PBS and fluorescence intensity was measured. The UCB levels were extrapolated from the standard curve.

Compound: C=CC1=C(C)/C(=C/c2[nH]c(Cc3[nH]c(/C=C4\NC(=O)C(C)=C4C=C)c(C)c3CCC(=O)O)c(CCC(=O)O)c2C)NC1=O [bilirubin, Bilirubin]
- activation of mutant TRPM2 currents [1]: remained responsive
- infarct volume ([2]; Trpm2+/+ mice, bilirubin 50 μg/g i.p. 30 min prior to 30 min tMCAO, n = 14): 55.31% ± 3.68%
- severity of brain damage, Bil group vs Ctrl group ([2]; day 7 after tMCAO): significantly higher
- infarct volume ([2]; female Trpm2+/+ mice, n = 4): 49.56 ± 7.40%
- infarct volume ([2]; male Trpm2+/+ mice, n = 10): 57.61 ± 4.24%
- magnitude of the TRPM2 currents evoked by voltage ramps ([3]; bilirubin 9 μM, −100 to +100 mV, control solution): increased
- activation of TRPM2 currents ([3]; bilirubin in the presence of PJ-34 (10 μM)): remained effective
- TRPM2 currents ([3]; bilirubin, intracellular ADPR 5 μM (subthreshold)): increased TRPM2 currents
- TRPM2 currents ([3]; bilirubin, intracellular ADPR 500 μM (saturated)): failed to do so
- activation of the TRPM2 channel ([3]; bilirubin, intracellular BAPTA 30 mM replacing EGTA): remained capable of activating
- Hillslope ([3]; concentration-response fit with the Hill equation, n = 4): 1.0
- EC50 ([3]; concentration-response fit with the Hill equation, n = 4, read-out: EC50 for evoked TRPM2 currents): 1920 nM
- excitability of cortical neurons ([4]; Trpm2+/+ slices, bilirubin for 5 and 20 min, synaptic blockers present): significantly increased
- spike amplitude ([4]; Trpm2+/+, 20 min after bilirubin application, 2.5 nA current in 0.3 ms): significantly attenuated
- mortality of cortical neurons [5]: 60.84% ± 2.13%
- serum and CSF UCB concentration, Bil group vs Ctrl group [6]: comparable
